From US6197335A, “Solid pharmaceutical compositions comprising a cyclosporin and an anionic surfactant” (Sherman; Bernard Charles, priority 1997, dated 2001)

Assay: critical micelle concentration of the surfactant in water
Assay type: physicochemical
Text: The ability of anionic surfactants to solubilize cyclosporins in water substantially increases when the concentration of the surfactant in water substantially exceeds the critical micelle concentration. Using sodium lauryl sulfate, for example, the critical micelle concentration is about 0.1% by weight.

- critical micelle concentration: about 0.1 % by weight
Structure (SMILES): CCCCCCCCCCCCOS(=O)(=O)[O-].[Na+] [sodium lauryl sulfate]
